{"source": "paper PMC5321753", "about": "“Enhanced expression of ADCY1 underlies aberrant neuronal signalling and behaviour in a syndromic autism model” (Nature Communications, 2017)", "key": {"WT and Fmr1 KO mice [1]": {"tested_on": "WT and Fmr1 KO mice", "test": "Audiogenic seizures (AGS) induced by 120 dB sound", "assay_type": "in vivo, mouse", "settings": "NB001 1 mg kg^-1 IP; for % Clonic/tonic seizure / % Death / % Wild running: 1 h before testing, 120 dB", "method": "Audiogenic seizures (AGS) were examined with 21- to 24-day-old-mouse (7), as this phenotype is dependent on the age of the mouse and only detected in juvenile Frm1 KO mouse. Mouse was placed in a box (30 cm L × 17 cm W × 12 cm H) with a flat plastic lid. A personal alarm (Streetwise, item # SWPDAL) was taped to the lid of the box and wired to a DC power supply to keep the sound amplitude constant. The mouse was allowed to acclimatize to the box for 5 min, following which 120 dB sound was emitted from the alarm for 2 min. The number of mice undergoing seizure activity within the 2-min period was counted. Audiogenic seizures were classified into different stages: wild running, clonic/tonic seizure and death.\n(§1) NB001 was dissolved in water to give a 25 mM stock solution. The stock was diluted in saline and IP injected into mice at 1 mg kg^−1 body weight. In all cases, the drug was administered 1 h before testing. Control mice were treated similarly but injected with saline.\n(§2) To inhibit phosphodiesterase (PDE), rolipram was dissolved in 10% kolliphore and IP injected into mice at 0.5 or 0.03 mg kg^−1. The use of the higher dose (that is, 0.5 mg kg^−1) was to ensure sufficient inhibition of PDE[44][45]. […] Rolipram- or vehicle (10% kolliphore)-injected mice were examined with light/dark test and AGS 30 min after drug administration."}, "ERK1/2": {"tested_on": "ERK1/2", "test": "Immunoblot of phosphorylated and total ERK1/2 in hippocampus after i.p. injection", "assay_type": "in vivo, mouse", "settings": "NB001 1 mg kg^-1 IP", "method": "(§3) Hippocampal tissues were collected from 3-month-(+/−10 days) old mice. […] The primers used for Adcy1 were […] (forward) and […] (reverse). The protein levels in hippocampal tissues collected from mice were determined by western blot using anti-ADCY1 (Sigma, Cat # SAB4500146-100UG, 1:1,000 dilution), anti-p-ERK1/2 (Cell Signaling, Cat # 9101L, 1:1,000 dilution), anti-pAkt (Cell Signaling, Cat # 9271, 1:1,000 dilution), anti-pS6K1 (Cell Signaling, Cat # 9204L for the detection of phosphorylation at Thr421/Ser424, Cat # 9234S for the detection of phosphorylation at Thr389, 1:1,000 dilution), anti-ERK1/2 (Cell Signaling, Cat # 9102L, 1:1,000 dilution), anti-Akt (Cell Signaling, Cat # 9272S, 1:1,000 dilution), anti-S6K1 (Cell Signaling, Cat # 9202L, 1:1,000 dilution) and anti-β-actin antibody (Sigma, Cat # A5441; 1:5,000 dilution). Following incubations with infrared fluorescence (IRDye)-conjugated secondary antibodies (1:5,000, LI-COR Biosciences, Cat # 926–32211 and 926–68070), signals were detected using the Odyssey system (LI-COR Biosciences). The un-cropped western blots are shown in Supplementary Fig. 10.\nas §1"}, "S6K1": {"tested_on": "S6K1", "test": "Immunoblot of phosphorylated and total S6K1 in hippocampus after i.p. injection", "assay_type": "in vivo, mouse", "method": "as §3, §1"}, "Akt": {"tested_on": "Akt", "test": "Immunoblot of phosphorylated and total Akt in hippocampus after i.p. injection", "assay_type": "in vivo, mouse", "settings": "acute NB001 1 mg kg^-1 IP, 1 h after injection", "method": "as §3, §1"}, "WT and Fmr1 KO mice [2]": {"tested_on": "WT and Fmr1 KO mice", "test": "Marble burying test", "assay_type": "in vivo, mouse", "settings": "NB001 1 mg kg^-1 IP, 1 h before testing", "method": "(§4) Repetitive behaviour was determined by the marble burying test as described. 3-month-(+/−10 days) old mouse was placed in a regular mouse cage filled with 7.6 cm-deep bedding for 1 h before the test. The mouse was then briefly removed from the testing box and 15 marbles were evenly arranged in a 5 × 3 pattern on the surface of the bedding. The mouse was reintroduced into the testing box and was allowed to bury marbles for 10 min. At the end of the testing period, the number of marbles that were fully buried, partially buried and left on the surface was counted.\nas §1"}, "WT and Fmr1 KO mice [3]": {"tested_on": "WT and Fmr1 KO mice", "test": "Light/dark test", "assay_type": "in vivo, mouse", "method": "(§5) Light/dark test was examined as described in our previous study. Light/dark test was performed using 3-month (+/−10 days) old mouse, which was first placed in the dark half of the chamber (Coulbourn Instruments). After 1 min of habituation, the trap door was opened and the mouse was allowed to move freely between the two chambers for 5 min. The time spent in each chamber and the number of entries into the lit side were recorded.\nas §1, §2"}, "WT and Fmr1 KO mice [4]": {"tested_on": "WT and Fmr1 KO mice", "test": "3-chamber social interaction test", "assay_type": "in vivo, mouse", "settings": "NB001 1 mg kg^-1 IP, 1 h before testing; relative to WT level", "method": "Social interaction was determined by the 3-chamber test as described. Mouse at 3 months (+/−10 days) of age was placed in a 3-chamber social interaction box and allowed to explore freely for 5 min. […] During the test, mouse was placed in the center chamber and the entrances to the side chambers were blocked. A novel stimulus mouse in a wire enclosure and an empty wire enclosure were placed in one of the side chambers, respectively. The entrances were then opened and the activity of the test mouse was recorded. Time spent in each of the chambers and time spent sniffing the stranger mouse enclosure versus the empty enclosure were recorded.\nas §1"}, "WT mice": {"tested_on": "WT mice", "test": "Behavioural examinations in WT mice (Fig. 5e-h; Table 2)", "assay_type": "in vivo, mouse", "settings": "NB001 1 mg kg^-1 IP, marble burying, light/dark, social interaction, AGS", "method": "as §4\nas §5, with “After 1 min of habituation, the trap door was opened and the mouse was allowed to move freely between the two chambers for 5 min.” left out\nAudiogenic seizures (AGS) were examined with 21- to 24-day-old-mouse (7), as this phenotype is dependent on the age of the mouse and only detected in juvenile Frm1 KO mouse. […] The number of mice undergoing seizure activity within the 2-min period was counted. […]\nSocial interaction was determined by the 3-chamber test as described. […] The entrances were then opened and the activity of the test mouse was recorded. Time spent in each of the chambers and time spent sniffing the stranger mouse enclosure versus the empty enclosure were recorded. […]"}, "[5]": {"test": "Mouse liver microsome stability assay", "assay_type": "in vitro ADME", "settings": "incubation with liver microsomes, 0-60 min", "method": "(§6) Following IP injection of NB001 (20 mg kg^−1), mice were killed at various time points, and 0.5–0.8 ml of blood was drawn from a cardiac puncture into a 1 ml syringe, which was pre-treated with NaHeparin. The blood was collected into 1.5 ml microfuge tubes coated with NaHeparin and put on ice immediately. Samples were centrifuged at 15,000 r.p.m. for 15 min. Blood plasma was collected from the upper layer, leaving the blood cells in the tube. The plasma was frozen at −80 °C for later analysis. Brains were taken out and weighed immediately. Brains were frozen at −80 °C for later preparation and analysis. The samples were subjected to LC/MS/MS with Turbo-Ionspray Interface used in the positive ion-mode (Pharmacokinetics Core, University of Michigan). Mouse liver microsome stability assay was performed by the Pharmacokinetics Core at University of Michigan."}, "[6]": {"test": "NB001 pharmacokinetic study, plasma and brain levels by LC/MS/MS", "assay_type": "in vivo, mouse", "method": "as §6"}, "[7]": {"settings": "IP injection, 20 mg kg^-1, mice"}}, "data": [{"smiles": "Nc1ncnc2c1ncn2CCNCCCCCO", "note": "[NB001, 5-{[2-(6-amino-9H-purin-9-yl)ethyl]amino}-1-pentanol]", "values": [{"measurement": "occurrence of AGS versus vehicle (saline)-injected controls", "setting": "WT and Fmr1 KO mice [1]; Fmr1 KO mice", "value": "less occurrence"}, {"measurement": "% Clonic/tonic seizure", "setting": "WT and Fmr1 KO mice [1]; Fmr1 KO mice", "value": 5.8, "unit": "%"}, {"measurement": "% Death", "setting": "WT and Fmr1 KO mice [1]; Fmr1 KO mice", "value": 5.8, "unit": "%"}, {"measurement": "% Wild running", "setting": "WT and Fmr1 KO mice [1]; Fmr1 KO mice", "value": 35.2, "unit": "%"}, {"measurement": "% Clonic/tonic seizure", "setting": "WT and Fmr1 KO mice [1]; WT mice", "value": 0, "unit": "%"}, {"measurement": "% Death", "setting": "WT and Fmr1 KO mice [1]; WT mice", "value": 0, "unit": "%"}, {"measurement": "% Wild running", "setting": "WT and Fmr1 KO mice [1]; WT mice", "value": 0, "unit": "%"}, {"measurement": "elevated level of p-ERK1/2 in the hippocampus", "setting": "ERK1/2; Fmr1 KO mice, 1 h after injection, relative to WT levels", "value": "normalized"}, {"measurement": "phosphorylation of ERK1/2 in WT mice", "setting": "ERK1/2; WT mice, hippocampus", "value": "did not cause measurable changes"}, {"measurement": "elevated level of pS6K1 (at Thr421/Ser424) in the hippocampus", "setting": "S6K1; Fmr1 KO mice, NB001 1 mg kg^-1 IP, 1 h after injection, relative to WT levels", "value": "normalized"}, {"measurement": "phosphorylation of S6K1 in WT mice", "setting": "S6K1; WT mice, NB001 1 mg kg^-1 IP, hippocampus", "value": "did not cause measurable changes"}, {"measurement": "level of pS6K1 at PI3K target site Thr389", "setting": "S6K1; hippocampus, acute NB001 1 mg kg^-1 IP, 1 h after injection", "value": "not affected"}, {"measurement": "level of pAkt", "setting": "Akt", "value": "not affected"}, {"measurement": "marble burying behaviour, NB001-injected Fmr1 KO versus WT mice", "setting": "WT and Fmr1 KO mice [2]", "value": "comparable"}, {"measurement": "transition between the light and dark chambers, NB001-injected Fmr1 KO versus WT mice", "setting": "WT and Fmr1 KO mice [3]; NB001 1 mg kg^-1 IP, 1 h before testing", "value": "comparable"}, {"measurement": "time spent in the lit chamber, difference between groups", "setting": "WT and Fmr1 KO mice [3]; WT and Fmr1 KO mice, vehicle or 1 mg per kg NB001", "value": "not significant"}, {"measurement": "reduced social interaction in Fmr1 KO mice", "setting": "WT and Fmr1 KO mice [4]", "value": "normalized"}, {"measurement": "behaviour in WT mice", "setting": "WT mice", "value": "did not cause measurable changes"}, {"measurement": "stability in mouse liver microsome assay", "setting": "[5]", "value": "stable and resistant to degradation"}, {"measurement": "absorption to plasma", "setting": "[6]; [7]", "value": "absorbed to the blood stream"}, {"measurement": "distribution to brain", "setting": "[6]; [7]", "value": "distributed to the brain"}, {"measurement": "blood-brain barrier crossing", "setting": "[6]; conclusion from plasma/brain levels and ref 40", "value": "can cross the blood–brain barrier"}]}]}
